Results: patent US10150728B2, “Alkylene derivatives” (Shionogi & Co., Ltd., priority 2013, dated 2018)

Target: recombinant human ACC2 (Homo sapiens (Human), UniProt O00763)
Experiment: Measurement of inhibitory activity on human ACC2 (MALDI-TOF MS, acetyl CoA to malonyl CoA conversion)
Type: biochemical
Source text: Preparation 1: Preparation of Recombinant Human ACC2
After a cDNA encoding human ACC2 (27 amino acid residue to 2458 amino acid residues from the N-terminus) was cloned from human kidney cDNA library (Clontech), human ACC2 gene containing His-tag sequence at 5′ terminus was inserted into pFastBac1 (Invitrogen). Recombinant baculovirus was generated using Bac-to-Bac baculovirus expression system (Invitrogen) according to the manufacturer's protocol. To express human ACC2, Sf-9 cells were infected with recombinant baculovirus. After infected cells were disrupted, the filtrated lysate was subjected to Ni-affinity chromatography and anion-exchange chromatography. The fractions containing human ACC2 protein were pooled as recombinant human ACC2 solution.
The Measurement of Inhibitory Activity on Human ACC1 and the ACC2
Recombinant human ACC1 and recombinant human ACC2, which were prepared by the method mentioned above, were preincubated with assay buffer solution (50 mM HEPES-KOH (pH 7.4), 10 mM magnesium chloride, 6-10 mM potassium citrate, 4 mM reduced form of glutathione, 1.5 mg/ml bovine serum albumin) for one hour. Then, 0.2 μL of each this invention compound solution (in DMSO) were dispensed to 384-well microplate, 5 μL of the preincubated enzyme solution and 5 μL of substrate solution (50 mM HEPES-KOH (pH 7.4), 1 mM ATP, 0.8 mM acetyl CoA and 25-50 mM potassium bicarbonate) were added to microplate. After centrifugation and shaking, the reaction mixtures were incubated in a humidified box at room temperature for 1 to 3 hours. After the incubation, the enzyme reactions were stopped by the addition of EDTA. Then, after the samples were cocrystallized with CHCA (α-cyano-4-hydroxy cinnamic acid) matrices on MALDI target plate, by using the matrix assist laser […] time-of-flight mass spectrometer (MALDI-TOF MS), samples were measured in reflector negative mode. Deprotonated ions of acetyl CoA (AcCoA) of substrate and malonyl CoA (MalCoA) of the reaction product were detected, then, the conversion rates of acetyl CoA to malonyl CoA was calculated by the intensity of [MalCoA-H]−/(Intensity of [MalCoA-H]−+Intensity of [AcCoA-H]−) using each signal strength. […] In addition, potassium citrate concentrations in assay buffer solution, potassium hydrogen carbonate concentrations in substrate solution and incubation time were adjusted by each lot of enzyme.

Chain of recombinant human ACC2 (O00763 27-2458): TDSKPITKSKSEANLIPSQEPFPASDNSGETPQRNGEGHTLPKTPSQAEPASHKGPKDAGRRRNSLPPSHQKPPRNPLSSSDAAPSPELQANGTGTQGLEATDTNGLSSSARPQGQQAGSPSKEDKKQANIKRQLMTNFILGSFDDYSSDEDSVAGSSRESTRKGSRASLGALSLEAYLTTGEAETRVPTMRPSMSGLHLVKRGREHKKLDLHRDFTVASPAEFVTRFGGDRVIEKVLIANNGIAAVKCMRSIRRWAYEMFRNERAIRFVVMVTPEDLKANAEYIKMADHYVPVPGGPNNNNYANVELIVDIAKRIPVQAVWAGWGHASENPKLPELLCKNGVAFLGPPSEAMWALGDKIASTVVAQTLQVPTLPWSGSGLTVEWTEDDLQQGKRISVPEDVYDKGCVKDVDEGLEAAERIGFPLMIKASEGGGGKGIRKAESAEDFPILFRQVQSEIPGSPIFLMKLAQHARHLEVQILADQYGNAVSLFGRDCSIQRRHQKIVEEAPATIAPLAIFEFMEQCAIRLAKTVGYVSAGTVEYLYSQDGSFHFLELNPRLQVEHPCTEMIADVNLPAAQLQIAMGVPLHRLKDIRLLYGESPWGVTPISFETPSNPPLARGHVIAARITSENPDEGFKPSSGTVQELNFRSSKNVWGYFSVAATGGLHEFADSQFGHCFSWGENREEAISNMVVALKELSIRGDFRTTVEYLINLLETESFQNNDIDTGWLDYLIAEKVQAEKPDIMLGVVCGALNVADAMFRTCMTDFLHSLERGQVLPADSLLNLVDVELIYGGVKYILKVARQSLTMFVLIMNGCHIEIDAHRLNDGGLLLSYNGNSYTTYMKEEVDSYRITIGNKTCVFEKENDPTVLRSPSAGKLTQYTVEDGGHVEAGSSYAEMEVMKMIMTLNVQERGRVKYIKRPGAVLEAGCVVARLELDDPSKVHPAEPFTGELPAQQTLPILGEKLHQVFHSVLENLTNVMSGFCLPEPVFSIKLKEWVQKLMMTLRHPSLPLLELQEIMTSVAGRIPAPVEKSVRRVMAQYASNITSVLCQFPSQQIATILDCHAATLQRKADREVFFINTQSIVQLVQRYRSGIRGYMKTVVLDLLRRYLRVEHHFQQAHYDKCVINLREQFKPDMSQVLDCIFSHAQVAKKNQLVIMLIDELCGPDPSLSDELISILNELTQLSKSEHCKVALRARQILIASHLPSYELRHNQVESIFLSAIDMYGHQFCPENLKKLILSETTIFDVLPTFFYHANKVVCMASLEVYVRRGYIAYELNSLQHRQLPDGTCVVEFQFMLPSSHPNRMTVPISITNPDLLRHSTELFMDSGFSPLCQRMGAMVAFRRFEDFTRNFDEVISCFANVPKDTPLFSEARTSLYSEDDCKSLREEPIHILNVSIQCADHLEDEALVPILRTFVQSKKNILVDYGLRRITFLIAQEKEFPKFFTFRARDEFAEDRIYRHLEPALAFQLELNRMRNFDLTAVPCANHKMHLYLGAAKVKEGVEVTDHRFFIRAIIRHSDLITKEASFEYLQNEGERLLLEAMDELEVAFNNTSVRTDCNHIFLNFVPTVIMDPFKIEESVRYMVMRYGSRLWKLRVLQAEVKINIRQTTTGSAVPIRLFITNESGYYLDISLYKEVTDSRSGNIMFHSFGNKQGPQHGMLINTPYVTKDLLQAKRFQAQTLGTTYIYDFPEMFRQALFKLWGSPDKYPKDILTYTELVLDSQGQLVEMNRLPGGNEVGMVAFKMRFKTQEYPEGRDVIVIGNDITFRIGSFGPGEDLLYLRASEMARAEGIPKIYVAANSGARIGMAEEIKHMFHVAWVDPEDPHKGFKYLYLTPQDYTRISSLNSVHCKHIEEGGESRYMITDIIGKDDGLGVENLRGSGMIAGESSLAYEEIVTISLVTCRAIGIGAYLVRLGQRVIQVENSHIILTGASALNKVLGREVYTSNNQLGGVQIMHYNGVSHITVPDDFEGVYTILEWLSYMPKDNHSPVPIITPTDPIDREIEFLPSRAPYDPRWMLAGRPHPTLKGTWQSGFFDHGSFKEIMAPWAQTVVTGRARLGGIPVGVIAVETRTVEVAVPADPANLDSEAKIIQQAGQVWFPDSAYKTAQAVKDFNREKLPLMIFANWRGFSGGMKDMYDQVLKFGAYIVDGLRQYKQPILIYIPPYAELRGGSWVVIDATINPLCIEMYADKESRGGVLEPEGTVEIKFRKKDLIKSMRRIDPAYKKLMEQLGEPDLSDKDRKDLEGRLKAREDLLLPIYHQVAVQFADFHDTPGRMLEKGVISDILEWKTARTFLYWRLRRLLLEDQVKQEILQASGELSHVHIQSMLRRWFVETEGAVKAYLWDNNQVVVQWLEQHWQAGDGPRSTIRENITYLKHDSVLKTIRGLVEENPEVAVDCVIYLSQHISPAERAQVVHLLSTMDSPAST

SMILES | IC50 (Table 154) [nM] | IC50 (Tables 155-159) [nM]
CC(=O)N[C@@H](C)COc1cnc(Oc2ccc3nc(C(C)(F)F)oc3c2F)cn1 [Compound I-043] | 93 | –
CC(=O)N[C@@H](C)CO[C@H]1CC[C@@H](Oc2ccc3nc(C(C)C)sc3c2F)CC1 [Compound I-044] | 756 | –
CCOc1nc2ccc(Oc3cnc(OC[C@H](C)NC(C)=O)cn3)c(F)c2s1 [Compound I-045] | 8 | –
CC(=O)N[C@@H](C)CO[C@H]1CC[C@H](Oc2ccc3nc(C(C)C)sc3c2Cl)CC1 [Compound I-046] | 213 | –
CC(=O)N[C@@H](C)CO[C@H]1CC[C@H](Oc2ccc3nc(C(C)(C)O)sc3c2Cl)CC1 [Compound I-047] | 336 | –
CC(=O)N[C@@H](C)[C@H](C)Oc1cnc(Oc2ccc3nc(C(C)C)sc3c2F)cn1 [Compound I-048] | 83 | –
CC(=O)N[C@@H](C)[C@@H](C)Oc1cnc(Oc2ccc3nc(C(C)C)sc3c2F)cn1 [Compound I-049] | 134 | –
CC(=O)N[C@@H](C)COc1cnc(Oc2ccc3nc(C4(F)CC4)sc3c2F)cn1 [Compound I-050] | 10 | –
CC(=O)N[C@@H](C)CO[C@H]1CC[C@H](Oc2ccc3nc(C(C)C)sc3c2C#N)CC1 [Compound I-051] | 84 | –
CC(=O)N[C@@H](C)CO[C@H]1CC[C@H](Oc2ccc3nc(C(C)(F)F)sc3c2Cl)CC1 [Compound I-052] | 265 | –
CC(=O)N[C@@H](C)CO[C@H]1CC[C@H](Oc2ccc3nc(C(C)(F)F)sc3c2F)CC1 [Compound I-053] | 12 | –
CCOc1nc2ccc(O[C@H]3CC[C@H](OC[C@H](C)NC(C)=O)CC3)c(Cl)c2s1 [Compound I-054] | 15 | –
CCOc1nc2ccc(O[C@H]3CC[C@H](OC[C@H](C)NC(C)=O)CC3)c(F)c2s1 [Compound I-055] | 13 | –
CC(=O)N[C@@H](C)[C@H](C)Oc1cnc(Oc2ccc3nc(C(C)(F)F)sc3c2F)cn1 [Compound I-056] | 57 | –
CC(=O)N[C@@H](C)[C@@H](C)Oc1cnc(Oc2ccc3nc(C(C)(F)F)sc3c2F)cn1 [Compound I-057] | 166 | –
CCOc1nc2ccc(Oc3cnc(O[C@@H](C)[C@H](C)NC(C)=O)cn3)c(F)c2s1 [Compound I-059] | 29 | –
CCOc1nc2ccc(Oc3cnc(O[C@H](C)[C@H](C)NC(C)=O)cn3)c(F)c2s1 [Compound I-061] | 115 | –
CC(=O)N[C@@H](C)CO[C@H]1CC[C@H](Oc2ccc3nc(C(C)C)oc3c2F)CC1 [Compound I-062] | 24 | –
CCc1nsc2c(Cl)c(Oc3cnc(OC[C@H](C)NC(C)=O)cn3)ccc12 [Compound I-063] | 128 | –
CC(=O)N[C@@H](C)CO[C@H]1CC[C@H](Oc2ccc3nc(C(C)C)oc3c2Cl)CC1 [Compound I-064] | 1120 | –
CCOc1nc2cc(Cl)c(Oc3cnc(OC[C@H](C)NC(C)=O)cn3)cc2s1 [Compound I-065] | 89 | –
CC(=O)N[C@@H](C)CO[C@H]1CC[C@H](Oc2ccc3sc(C(C)C)nc3c2Cl)CC1 [Compound I-066] | 1300 | –

SMILES | IC50 (Table 154) [nM] | IC50 (Tables 155-159) [nM]
CCOc1nc2ccc(Oc3cnc(OC[C@H](C)NC(C)=O)cn3)c(C#N)c2s1 [Compound I-068] | 25 | –
CCOc1ncc2c(Cl)c(Oc3cnc(OC[C@H](C)NC(C)=O)cn3)ccc2n1 [Compound I-069] | 1400 | –
CC(=O)N[C@@H](C)COc1cnc(Oc2ccc3sc(C(C)C)nc3c2Cl)cn1 [Compound I-070] | 469 | –
CCOc1nc2ccc(Oc3cnc(OC[C@H](C)NC(=O)CO)cn3)c(Cl)c2s1 [Compound I-071] | 54 | –
CC(=O)N[C@@H](C)COc1cnc(Oc2ccc3nc(N4CC(F)(F)C4)ncc3c2Cl)cn1 [Compound I-072] | 154 | –
CC(=O)N[C@@H](C)COc1cnc(Oc2ccc3nc(N4CCC(F)(F)CC4)ncc3c2Cl)cn1 [Compound I-073] | 221 | –
CCOc1nc2ccc(O[C@H]3C[C@H](OC[C@H](C)NC(C)=O)C3)c(F)c2s1 [Compound I-074] | 85 | –
CCOc1nc2ccc(O[C@H]3C[C@H](OC[C@H](C)NC(C)=O)C3)c(Cl)c2s1 [Compound I-075] | 20 | –
CCOc1nc2ccc(O[C@H]3C[C@@H](OC[C@H](C)NC(C)=O)C3)c(F)c2s1 [Compound I-076] | 102 | –
CCOc1nc2ccc(O[C@H]3C[C@@H](OC[C@H](C)NC(C)=O)C3)c(Cl)c2s1 [Compound I-077] | 168 | –
CCOc1nc2ccc(O[C@H]3CC[C@](C)(OC[C@H](C)NC(C)=O)CC3)c(F)c2s1 [Compound I-078] | 189 | –
CC(=O)N[C@@H](C)COc1cnc(Oc2ccc3c(c2Cl)OCCN(CC(F)(F)F)C3=O)cn1 [Compound I-080] | 1290 | –
CC(=O)N[C@@H](C)COc1cnc(Oc2ccc3c(c2Cl)OCCN(C(C)C)C3=O)cn1 [Compound I-082] | 3800 | –
CCOc1nc2ccc(O[C@H]3CC[C@](C)(OC[C@H](C)NC(C)=O)CC3)c(Cl)c2s1 [Compound I-083] | 351 | –
CCOc1nc2ccc(OC[C@H]3C[C@@H](OC[C@H](C)NC(C)=O)C3)c(F)c2s1 [Compound I-086] | 42 | –
CCOc1nc2ccc(OC[C@H]3C[C@@H](OC[C@H](C)NC(C)=O)C3)c(Cl)c2s1 [Compound I-087] | 65 | –
CCOc1nc2ccc(OC[C@H]3C[C@H](OC[C@H](C)NC(C)=O)C3)c(F)c2s1 [Compound I-088] | 15 | –
CCOc1nc2ccc(OC[C@H]3C[C@H](OC[C@H](C)NC(C)=O)C3)c(Cl)c2s1 [Compound I-089] | 62 | –
CC(=O)N[C@@H](C)COc1cnc(Oc2ccc(C(=O)Nc3ccc(F)cc3)c(F)c2F)cn1 [Compound I-090] | 45 | –
CCOc1nc2ccc(Oc3cnc(OC[C@H](CO)NC(C)=O)cn3)c(F)c2s1 [Compound I-092] | 89 | –
CC(=O)N[C@@H](C)CO[C@H]1CC[C@H](Oc2ccc3c(c2Cl)OCCN(CC(F)(F)F)C3=O)CC1 [Compound I-094] | 187 | –
CC(=O)N[C@@H](C)COc1cnc(Oc2ccc(C(=O)NCC(C)C)c(F)c2F)cn1 [Compound I-095] | 1050 | –

SMILES | IC50 (Table 154) [nM] | IC50 (Tables 155-159) [nM]
CC(=O)N[C@@H](C)COc1cnc(Oc2ccc(C(=O)N3CCCCC3)c(F)c2F)cn1 [Compound I-096] | 775 | –
CC(=O)N[C@@H](C)CO[C@H]1C[C@H](COc2ccc3nc(C(C)(F)F)sc3c2F)C1 [Compound I-097] | 97 | –
CC(=O)N[C@@H](C)CO[C@H]1C[C@H](COc2ccc3nc(C(C)(C)O)sc3c2F)C1 [Compound I-099] | 148 | –
CCOc1nc2cc(Cl)c(OC[C@H]3C[C@H](OC[C@H](C)NC(C)=O)C3)cc2s1 [Compound I-100] | 27 | –
CCOc1nc2ccc(OC[C@H]3C[C@H](OC[C@H](C)NC(C)=O)C3)cc2s1 [Compound I-101] | 26 | –
CC(=O)N[C@@H](C)CO[C@H]1CC[C@H](Oc2ncc(-c3ccccc3)cc2F)CC1 [Compound I-102] | 44 | –
CC(=O)N[C@@H](C)CO[C@H]1CC[C@H](Oc2ncc(-c3ccccc3)cc2Cl)CC1 [Compound I-104] | 12 | –
CC(=O)N[C@@H](C)CO[C@H]1CC[C@H](Oc2ncc(-c3ccccc3)cc2C#N)CC1 [Compound I-105] | 182 | –
CC(=O)N[C@@H](C)CO[C@H]1C[C@H](COc2ccc3nc(C(C)(F)F)sc3c2F)C1 [Compound I-107] | – | 97
CC(=O)N[C@@H](C)CO[C@H]1C[C@H](COc2ccc3nc(C(C)(F)F)sc3c2Cl)C1 [Compound I-108] | – | 792
CC(=O)N[C@@H](C)CO[C@H]1C[C@H](COc2ccc3nc(C(C)(C)O)sc3c2F)C1 [Compound I-109] | – | 148
CCOc1nc2cc(Cl)c(OC[C@H]3C[C@H](OC[C@H](C)NC(C)=O)C3)cc2s1 [Compound I-110] | – | 27
CCOc1nc2ccc(OC[C@H]3C[C@H](OC[C@H](C)NC(C)=O)C3)cc2s1 [Compound I-111] | – | 26
CC(=O)N[C@@H](C)CO[C@H]1CC[C@H](Oc2ccc3nc(OC(C)CF)sc3c2Cl)CC1 (stereo partly shown) [Compound I-112] | – | 31
CC(=O)N[C@@H](C)CO[C@H]1CC[C@H](Oc2ccc3nc(OC(C)C)sc3c2Cl)CC1 [Compound I-113] | – | 10
CC(=O)N[C@@H](C)CO[C@H]1CC[C@H](Oc2cc3sc(OC(C)C)nc3cc2Cl)CC1 [Compound I-114] | – | 193
CCOc1nc2ccc(OC[C@]3(F)C[C@@H](OC[C@H](C)NC(C)=O)C3)c(F)c2s1 [Compound I-115] | – | 12
CCOc1nc2ccc(OC[C@]3(F)C[C@@H](OC[C@H](C)NC(C)=O)C3)c(Cl)c2s1 [Compound I-116] | – | 41
CC(=O)N[C@@H](C)CO[C@H]1CC[C@H](Oc2ccc3nc(C4(F)CC4)sc3c2F)CC1 [Compound I-117] | – | 7
CC(=O)N[C@@H](C)CO[C@H]1CC[C@H](Oc2ccc3nc(OC4CC4)sc3c2F)CC1 [Compound I-118] | – | 10
